Legend:
[1] = system: SHV and TEM genes; assay: PCR amplification with TEM and SHV primers; design: species or system Klebsiella pneumoniae
Experimental: (§1) The organisms were inoculated into 5 ml of Luria Bertani (LB) broth (Difco, Detroit, Mich.) and incubated for 20 hours at 37° C. with shaking. Cells from 1.5 ml of overnight culture were harvested by centrifugation at 17,310×g in an Hermle centrifuge for 5 minutes. After the supernatant was decanted, the pellet was resuspended in 500 μl of distilled water. The cells were lysed by heating at 95° C. for 10 minutes and cellular debris was removed by centrifugation for 5 minutes at 17,310×g. The supernatant was used as source of template for amplification.
(§2) The following oligonucleotide primers specific for the SHV and TEM genes were designed by using MacVector version 4.5 (Kodak/IBI): SHV genes: A [5′-([…])-3′] (SEQ ID NO:10) and B [5′-([…])-3′] (SEQ ID NO:11) corresponding to nucleotide numbers 103 to 121 and 988 to 970, respectively, of Mercier et al., Antibicrob. Agents Chemother. 34:1577-1583 (1990)); TEM genes: C [5′-([…])-3′ (SEQ ID NO:5) and D [5′-([…])-3′ (SEQ ID NO:1) corresponding to nucleotide numbers 90 to 105 and 1062 to 1042, respectively, of Sutcliff et al., Proc. Nat. Aca. Sci. USA, 75:3737-3741 (1978). Primers A and B amplified a 885 base pair fragment while primers C and D amplified a 971 base pair fragment. The specificity of the SHV and TEM primers for amplification of SHV and TEM genes respectively was tested by using the following beta-lactamase controls; TEM-I (pACYC177), MIR-1 (from K. pneumoniae96D) and SHV-7 (pCLL3410).
PCR amplifications were carried out on a DNA Thermal Cycler 480 instrument (Perkin-Elmer, Cetus, Norwalk, Conn.) using the Gene Amp DNA amplification kit containing AmpliTaq polymerase (Perkin Elmer, Roche Molecular Systems, Inc., Branchburg, N.J.). The composition of the reaction mixture was as follows: 10 mM Tris-HCl (pH 8.3), 50 mM KCl, 0.1% TRITON X-100, 1.5 mM MgCl2, 0.2 mM (each) of the four deoxynucleoside triphosphates, and 1.2 U of AmpliTaq in a total volume of 49 μl. A total of 1 μl of sample lysate was added to the reaction mixture, and was centrifuged briefly before […] of mineral oil was layered on the surface. The PCR program consisted of an initial denaturation step at 96° C. for 15 seconds; followed by 24 cycles of DNA denaturation at 96° C. for 15 seconds, primer annealing at 50° C. for 15 seconds and primer extension at 72° C. for 2 minutes. After the last cycle the products were stored at 4° C. The PCR products (1/10 volume) were analyzed by electrophoresis using 1.4% agarose gels in TAE buffer (0.04 M Tris-acetate, 0.002 M EDTA [pH 8.5]). The gels were stained with ethidium bromide and the PCR products were visualized with ultra-violet light. […] The larger product which corresponded to the expected size of the SHV specific product was gel purified using a 1.4% agarose in TAE gel and the purified PCR product was used for sequence analysis.

[2] = system: SHV and TEM genes; assay: PCR amplification with TEM and SHV primers; design: species or system Escherichia coli
Experimental: as §1, §2
PCR amplifications were carried out on a DNA Thermal Cycler 480 instrument (Perkin-Elmer, Cetus, Norwalk, Conn.) using the Gene Amp DNA amplification kit containing AmpliTaq polymerase (Perkin Elmer, Roche Molecular Systems, Inc., Branchburg, N.J.). The composition of the reaction mixture was as follows: 10 mM Tris-HCl (pH 8.3), 50 mM KCl, 0.1% TRITON X-100, 1.5 mM MgCl2, 0.2 mM (each) of the four deoxynucleoside triphosphates, and 1.2 U of AmpliTaq in a total volume of 49 μl. A total of 1 μl of sample lysate was added to the reaction mixture, and was centrifuged briefly before […] of mineral oil was layered on the surface. The PCR program consisted of an initial denaturation step at 96° C. for 15 seconds; followed by 24 cycles of DNA denaturation at 96° C. for 15 seconds, primer annealing at 50° C. for 15 seconds and primer extension at 72° C. for 2 minutes. After the last cycle the products were stored at 4° C. The PCR products (1/10 volume) were analyzed by electrophoresis using 1.4% agarose gels in TAE buffer (0.04 M Tris-acetate, 0.002 M EDTA [pH 8.5]). The gels were stained with ethidium bromide and the PCR products were visualized with ultra-violet light. […]

[3] = system: SHV and TEM genes; assay: PCR amplification with TEM and SHV primers; design: species or system Proteus mirabilis; settings: P. mirabilis Pit 85 (pI 5.6, TEM-26-type)
Experimental: as §1
The following oligonucleotide primers specific for the SHV and TEM genes were designed by using MacVector version 4.5 (Kodak/IBI): SHV genes: A [5′-([…])-3′] (SEQ ID NO:10) and B [5′-([…])-3′] (SEQ ID NO:11) corresponding to nucleotide numbers 103 to 121 and 988 to 970, respectively, of Mercier et al., Antibicrob. Agents Chemother. […]
PCR amplifications were carried out on a DNA Thermal Cycler 480 instrument (Perkin-Elmer, Cetus, Norwalk, Conn.) using the Gene Amp DNA amplification kit containing AmpliTaq polymerase (Perkin Elmer, Roche Molecular Systems, Inc., Branchburg, N.J.). […] The PCR products (1/10 volume) were analyzed by electrophoresis using 1.4% agarose gels in TAE buffer (0.04 M Tris-acetate, 0.002 M EDTA [pH 8.5]). […]

[4] = system: K. pneumoniae and A. hydrophila wound infection; settings: one patient, intravenous, after four weeks of therapy
[5] = K. pneumoniae Pit 16 (pI 5.6, TEM-26-type)
[6] = K. pneumoniae Pit 82 (pI 8.2, SHV-5)
[7] = K. pneumoniae Pit 100 (pI 7.6, SHV-2)
[8] = E. coli Pit 64 (pI 5.6, TEM-26-type)

Row | Substance | Amplification with primers [1, 5] | Amplification with primers [1, 6] | Amplification with primers [1, 7] | Amplification with primers ([2]; E. coli Pit 56 (pI 7.6, SHV-2)) | Amplification with primers [2, 8] | Amplification with primers [3] | clinical outcome of therapy [4]
1 | TEM primers: primer pair C (SEQ ID NO:5) and D (SEQ ID NO:1) specific for the TEM genes (DNA 1 TCGGGGAAATGTGCG; DNA 2 TGCTTAATCAGTGAGGCACC; listed as DNA, chemistry not given here) | Yes | No | No | No | Yes | Yes | 
2 | imipenem/cilastatin |  |  |  |  |  |  | all signs of inflammation resolved
3 | SHV primers: primer pair A (SEQ ID NO:10) and B (SEQ ID NO:11) specific for the SHV genes (DNA 1 CACTCAAGGATGTATTGTG; DNA 2 TTAGCGTTGCCAGTGCTCG; listed as DNA, chemistry not given here) | No | Yes | Yes | Yes | No | No | 
